# Reference: patent publication US20190380957A1, “Protein Hydrogels For Treatment Of Neovascular Disease” (New Jersey Institute of Technology, priority 2018, published 2019)
# How the values were obtained:
# [1] = In vitro cytocompatibility (LIVE/DEAD viability/cytotoxicity kit); type: cell-based; settings: mouse, NIH 3T3 fibroblasts; 800 μM SL-Kr5 in media, day 3; control 85-90%, p<0.05; read-out: viability of cells
# Experimental: (§1) Cytocompatibility was determined by fibroblast cultures treated with increasing concentrations of the peptide in culture media.
# (§2) In Vitro Cytocompatibility: NIH 3T3 fibroblasts were cultured in media (Dulbecco's Modified Eagle Medium supplemented with 10% fetal bovine serum and 1% 100× penicillin streptomycin) in T75 flasks. After the cells reached confluency, they were seeded in a 96-well plate at 2,500 cells/well. Three target conditions (800 μM, 80 μM, and […]; n=6) and a control (media with sucrose; n=6) were tested. For target conditions, the peptide was supplemented in the media, and for the media control, 298 mM sucrose (formulation carrier) was added. Media was changed daily and cytocompatibility was assessed on day 3 using a LIVE/DEAD® viability/cytotoxicity kit. Images were taken on a Nikon Instruments Eclipse Ti-S inverted fluorescence microscope, and cell viability was quantified using NIH ImageJ, a known image analysis and processing software program.
# [2] = test system: NIH 3T3 fibroblasts; assay: as above; type: cell-based; settings: for cytocompatibility compared to the media+sucrose control: day 3
# Experimental: as §1, §2
# [3] = test system: Female Wistar rats; assay: In vivo subcutaneous implantation, histology; parameters: species or system rat; settings: 200 μL SC implant
# [4] = test system: human umbilical vein endothelial cells (HUVECs); assay: Tube formation assay; type: cell-based; settings: positive control, 1.8 mM suramin in media
# Experimental: To assay the anti-angiogenic effect of the self-assembled peptide on endothelial cells, tube formation assays were performed for a range of peptide concentrations. This assay captures the propensity of human ECs or HUVECs to form capillary-like tubules. The process is sensitive to the presence of anti-angiogenic compounds. HUVECs were seeded along with varying concentrations of SL-Kr5 solution on a basement membrane extract matrix to stimulate the formation of capillary tubules. The effects of the peptide on the HUVECs were characterized by measuring the extent of tube formation in terms of total length of tubules formed, number of segments, number of branches, number of junctions, number of nodes, and […] (FIGS. 8A-8F, FIGS. 9A-9D). […]
# Tube Formation Assay: HUVECs (Lonza) were cultured in T75 flasks using an Endothelial Cell Growth Medium BulletKit (Lonza). […] The negative control was supplemented with 298 mM sucrose to match the corresponding highest quantity added to the test conditions, and the positive control contained 1.8 mM suramin. The 96-well plate was then incubated at 37° C. for 4 to 6 hours before imaging on a Nikon Instruments Eclipse Ti-S inverted fluorescence microscope. Tube length was quantified using NIH ImageJ software.
# [5] = target: GRP78 (glucose-regulated protein 78) (Homo sapiens, UniProt P11021); settings: previously shown; cited from earlier work
# Sequence of GRP78 (glucose-regulated protein 78) (P11021 19-654, species assumed): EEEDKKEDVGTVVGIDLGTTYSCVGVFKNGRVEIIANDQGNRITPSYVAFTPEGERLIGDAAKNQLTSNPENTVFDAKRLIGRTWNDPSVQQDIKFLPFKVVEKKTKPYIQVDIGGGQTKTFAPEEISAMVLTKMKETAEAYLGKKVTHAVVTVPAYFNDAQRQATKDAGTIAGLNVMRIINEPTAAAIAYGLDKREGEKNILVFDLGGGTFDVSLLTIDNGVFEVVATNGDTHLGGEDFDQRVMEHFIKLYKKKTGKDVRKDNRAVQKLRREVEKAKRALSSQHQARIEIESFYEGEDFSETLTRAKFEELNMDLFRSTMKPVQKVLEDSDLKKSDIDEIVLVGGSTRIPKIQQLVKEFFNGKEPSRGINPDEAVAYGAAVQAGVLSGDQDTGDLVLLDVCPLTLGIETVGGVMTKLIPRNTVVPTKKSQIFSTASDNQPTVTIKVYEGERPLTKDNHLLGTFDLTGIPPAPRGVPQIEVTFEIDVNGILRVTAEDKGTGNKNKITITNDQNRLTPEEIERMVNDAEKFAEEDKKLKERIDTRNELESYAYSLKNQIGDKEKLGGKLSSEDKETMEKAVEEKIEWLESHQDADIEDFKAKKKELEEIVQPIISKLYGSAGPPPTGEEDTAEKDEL
# [6] = test system: endothelial cells; settings: previously shown; cited from earlier work
# [7] = cited from earlier work
compound,measurement,setting,value
"Ac-KSLSLSLSLSLSLKGPRKLYDY-NH2 [SL-Kr5, K-(SL)6-K-G-PRKLYDY]","viability at 72 h, 800 µM",[1],55%
same,cytocompatibility compared to the media+sucrose control,[2]; 8 μM SL-Kr5 in media,little to no difference
same,cytocompatibility compared to the media+sucrose control,[2]; 80 μM SL-Kr5 in media,little to no difference
same,non-specific toxicity in stromal cells,"[2]; fibroblast cultures, increasing peptide concentrations",did not induce non-specific toxicity
same,cellular proliferation versus controls,[2]; over a range of concentrations,comparable cellular proliferation to controls
same,fibrous capsule,[3],no fibrous capsule apparent
Cc1ccc(C(=O)Nc2ccc(S(=O)(=O)O)c3cc(S(=O)(=O)O)cc(S(=O)(=O)O)c23)cc1NC(=O)c1cccc(NC(=O)Nc2cccc(C(=O)Nc3cc(C(=O)Nc4ccc(S(=O)(=O)O)c5cc(S(=O)(=O)O)cc(S(=O)(=O)O)c45)ccc3C)c2)c1 [suramin],EC tube formation,[4],inhibited
PRKLYDY (Kr5),attachment to GRP78,[5],can attach
same,apoptosis of endothelial cells,[6],induce apoptosis
K2(SL)6K2,basal level of angiogenesis,[7]; no VEGF mimic,strong basal level of angiogenesis
same,in vivo biodegradation time,[7]; slow biodegradation,6 weeks
